Reference: patent US12729181B2, “Compounds, compositions, and methods for modulating calcium ion homeostasis” (The Regents of the University of California, priority 2020, dated 2026)

System: tre^tc318 mutant embryos
Assay: Compound rescue screen: restoration of persistent heartbeat in tremblor embryos
Format: in vivo, Zebrafish
Conditions: for responders at 10 µM / responders at 15 µM / responders at 20 µM: Danio rerio, 48 h; for responders at 10 µM: read-out: Rescue at 10 uM (%); for responders at 15 µM: read-out: Rescue at 15 uM (%); for Rescue at 10 uM (%): 10 uM from 30 hpf; for Rescue at 10 uM (%) / Rescue at 15 uM (%) / Rescue at 20 uM (%): cardiac function by visual inspection at 2 dpf, 10 embryos per well; for Rescue at 15 uM (%): 15 uM from 30 hpf; for Rescue at 20 uM (%): 20 uM from 30 hpf; for responders at 20 µM: read-out: Rescue at 20 uM (%)
Description: Zebrafish of the mutant line tremblor (tre^tc318) were maintained and bred as described previously in the literature. C. f. Langenbacher A D, et al., PNAS, 2005, 102(49), 17699-17704.
Exemplary compounds were screened for their ability to partially or completely restore persistent heartbeat in tre^tc318 embryos. 10 tre^tc318 mutant embryos were placed in each well of a 24-well plate and raised in the presence of individual compounds at various concentrations (5, 10, 15 and 20 μM) from 30 hpf. Cardiac function was analyzed by visual inspection at 2 dpf. The hearts of tre^tc318 embryos manifest a chaotic movement resembling cardiac fibrillation with sporadic contractions. Compounds that elicited persistent coordinated cardiac contractions were validated by rescreening at least once on another 10 tre^tc318 mutant embryos.

Row | Structure (SMILES) | responders at 10 µM [%] | responders at 15 µM [%] | other results
1 | CCOC(=O)C1=CCN(S(=O)(=O)c2ccccc2Cl)C1c1ccc(F)cc1 (stereo not shown) [FS043] | 33 |  | 
2 | CCOC(=O)C1=CCN(S(=O)(=O)c2ccccc2Cl)C1c1ccccc1 (stereo not shown) [FS054] | 0 |  | 
3 | CCOC(=O)C1=CCN(S(=O)(=O)c2cccc(Cl)c2)C1c1cccc(C)c1 (stereo not shown) [FS122] |  | 33 | 
4 | CCOC(=O)C1=CCN(S(=O)(=O)c2ccc(Br)cc2)C1c1cccc(F)c1 (stereo not shown) [FS095] | 40 |  | 
5 | CCOC(=O)C1=CCN(S(=O)(=O)c2ccc(Cl)cc2)C1c1ccc(Cl)cc1 (stereo not shown) [FS085] |  |  | Rescue at 10 uM (%): 89%; Rescue at 15 uM (%): 80%; Rescue at 20 uM (%): 80%
6 | CCOC(=O)C1=CCN(S(=O)(=O)c2ccc(C)cc2)C1c1ccccc1F (stereo not shown) [FS062] |  |  | Rescue at 10 uM (%): 50%; Rescue at 15 uM (%): 90%; Rescue at 20 uM (%): 60%
7 | CCOC(=O)C1=CCN(S(=O)(=O)c2ccccc2C(=O)OC)C1c1ccc(Cl)cc1 (stereo not shown) [FS073] |  |  | Rescue at 10 uM (%): 40%
8 | CCOC(=O)C1=CCN(S(=O)(=O)c2ccccc2Br)C1c1cccc(Cl)c1 (stereo not shown) [FS030] | 0 |  | 
9 | CCOC(=O)C1=CCN(S(=O)(=O)c2ccc(Cl)cc2)C1c1ccc(F)cc1 (stereo not shown) [FS098] | 40 | 44 | responders at 20 µM: 89%
10 | CCOC(=O)C1=CCN(S(=O)(=O)c2ccccc2Cl)C1c1cccc(C)c1 (stereo not shown) [FS028] | 0 |  | 
11 | CCOC(=O)C1=CCN(S(=O)(=O)c2ccc(Br)cc2)C1c1ccc(Br)cc1 (stereo not shown) [FS100] | 0 | 33 | 
12 | CCOC(=O)C1=CCN(S(=O)(=O)c2cccc(Cl)c2)C1c1ccccc1 (stereo not shown) [FS132] |  | 88 | 
13 | CCOC(=O)C1=CCN(S(=O)(=O)c2ccc(Cl)cc2)C1c1cccc(Br)c1 (stereo not shown) [FS089] | 0 |  | 
14 | CCOC(=O)C1=CCN(S(=O)(=O)c2ccccc2)C1c1ccc(Cl)cc1 (stereo not shown) [FS072] |  |  | Rescue at 10 uM (%): 60%; Rescue at 15 uM (%): 70%; Rescue at 20 uM (%): 40%
15 | CCOC(=O)C1=CCN(S(=O)(=O)c2ccc(Br)cc2)C1c1ccc(Cl)c(Cl)c1 (stereo not shown) [FS092] | 0 | 11 | responders at 20 µM: 11%
16 | CCOC(=O)C1=CCN(S(=O)(=O)c2ccccc2C)C1c1cccc(F)c1 (stereo not shown) [FS022] | 0 |  | 
17 | CCOC(=O)C1=CCN(S(C)(=O)=O)C1c1ccc(Cl)cc1 (stereo not shown) [FS139] |  |  | Rescue at 15 uM (%): 0%
18 | CCOC(=O)C1=CCN(S(=O)(=O)c2cccc(Br)c2)C1c1ccc(Br)cc1 (stereo not shown) [FS137] |  | 0 | 
19 | CCOC(=O)C1=CCN(S(=O)(=O)c2ccc(C)cc2)C1c1ccc(C(=O)OCC)cc1 (stereo not shown) [FS061] | 40 | 56 | responders at 20 µM: 40%
20 | CCOC(=O)C1=CCN(S(=O)(=O)c2ccccc2Cl)C1c1ccc(Cl)cc1 (stereo not shown) [FS041] | 44 | 30 | responders at 20 µM: 20%
21 | CCOC(=O)C1=CCN(S(=O)(=O)c2ccccc2C)C1c1ccc(Cl)c(Cl)c1 (stereo not shown) [FS019] | 30 | 40 | responders at 20 µM: 30%
22 | CCOC(=O)C1=CCN(S(=O)(=O)c2ccccc2F)C1c1cccc(C)c1 (stereo not shown) [FS038] | 25 |  | 
23 | CCOC(=O)C1=CCN(S(=O)(=O)c2ccc(C)cc2)C1c1cccc2ccccc12 (stereo not shown) [FS068] |  |  | Rescue at 10 uM (%): 0%; Rescue at 15 uM (%): 0%; Rescue at 20 uM (%): 0%
24 | CCOC(=O)C1=CCN(S(=O)(=O)c2ccc([N+](=O)[O-])cc2)C1c1ccc(C)cc1 (stereo not shown) [FS141] |  | 0 | 

Row | Structure (SMILES) | responders at 10 µM [%] | responders at 15 µM [%] | other results
25 | CCOC(=O)C1=CCN(S(=O)(=O)c2ccc(F)cc2)C1c1cccc(F)c1 (stereo not shown) [FS116] |  | 11 | 
26 | CCOC(=O)C1=CCN(S(=O)(=O)c2ccc([N+](=O)[O-])cc2)C1c1ccccc1 (stereo not shown) [FS142] |  |  | Rescue at 15 uM (%): 56%
27 | CCOC(=O)C1=CCN(S(=O)(=O)c2ccc(Br)cc2)C1c1cccc(Cl)c1 (stereo not shown) [FS093] | 0 |  | 
28 | CCOC(=O)C1=CCN(S(=O)(=O)c2cccc(F)c2)C1c1ccc(Br)cc1 (stereo not shown) [FS134] |  | 60 | 
29 | CCOC(=O)C1=CCN(S(=O)(=O)c2ccccc2C)C1c1ccc(Br)cc1 (stereo not shown) [FS039] | 33 |  | 
30 | CCOC(=O)C1=CCN(S(=O)(=O)c2ccc(Br)cc2)C1c1ccc(Cl)cc1 (stereo not shown) [FS099] | 0 | 33 | 
31 | CCOC(=O)C1=CCN(S(=O)(=O)c2ccccc2Cl)C1c1cccc(Br)c1 (stereo not shown) [FS026] | 0 |  | 
32 | CCOC(=O)C1=CCN(S(=O)(=O)c2ccccc2F)C1c1cccc(F)c1 (stereo not shown) [FS037] | 0 |  | 
33 | CCOC(=O)C1=CCN(S(=O)(=O)c2ccc(C)cc2)C1c1cccc(Cl)c1 (stereo not shown) [FS064] |  |  | Rescue at 10 uM (%): 20%
34 | CCOC(=O)C1=CCN(S(=O)(=O)c2ccccc2F)C1c1cccc(Cl)c1 (stereo not shown) [FS035] | 0 |  | 
35 | CCOC(=O)C1=CCN(S(=O)(=O)c2ccccc2Br)C1c1ccc(F)cc1 (stereo not shown) [FS047] | 20 |  | 
36 | CCOC(=O)C1=CCN(S(=O)(=O)c2ccccc2Br)C1c1cccc(C)c1 (stereo not shown) [FS033] | 0 |  | 
37 | CCOC(=O)C1=CCN(S(=O)(=O)c2ccc(Br)cc2)C1c1cccc(C)c1 (stereo not shown) [FS096] | 22 |  | 
38 | CCOC(=O)C1=CCN(S(=O)(=O)c2cccc(Cl)c2)C1c1cccc(Br)c1 (stereo not shown) [FS120] |  | 56 | 
39 | CCOC(=O)C1=CCN(S(=O)(=O)c2ccccc2Br)C1c1ccc(Cl)c(Cl)c1 (stereo not shown) [FS029] | 70 | 10 | responders at 20 µM: 10%
40 | CCOC(=O)C1=CCN(S(=O)(=O)c2ccc(C)cc2)C1c1ccc(CC)cc1 (stereo not shown) [FS058] | 58 | 80 | responders at 20 µM: 45%
41 | CCOC(=O)C1=CCN(S(=O)(=O)c2ccccc2F)C1c1cccc(Br)c1 (stereo not shown) [FS036] | 0 |  | 
42 | CCOC(=O)C1=CCN(S(=O)(=O)c2cccc(Br)c2)C1c1ccc(Cl)cc1 (stereo not shown) [FS136] |  | 29 | 
43 | CCOC(=O)C1=CCN(S(=O)(=O)c2cccc(Br)c2)C1c1ccc(F)cc1 (stereo not shown) [FS138] |  | 50 | 
44 | CCOC(=O)C1=CCN(S(=O)(=O)c2ccc(C)cc2)C1c1ccc(Cl)cc1 (stereo not shown) [FS063] |  |  | Rescue at 10 uM (%): 40%
45 | CCOC(=O)C1=CCN(S(C)(=O)=O)C1c1ccc(C)cc1 (stereo not shown) [FS140] |  | 0 | 
46 | CCOC(=O)C1=CCN(S(=O)(=O)c2ccc(Br)cc2)C1c1cccc(Br)c1 (stereo not shown) [FS094] | 11 | 75 | responders at 20 µM: 25%
47 | CCOC(=O)C1=CCN(S(=O)(=O)c2ccccc2C)C1c1ccc(C)cc1 (stereo not shown) [FS018] | 0 |  | 
48 | CCOC(=O)C1=CCN(S(=O)(=O)c2ccccc2F)C1c1ccccc1 (stereo not shown) [FS056] |  |  | Rescue at 10 uM (%): 20%; Rescue at 15 uM (%): 0%; Rescue at 20 uM (%): 0%

Row | Structure (SMILES) | responders at 10 µM [%] | responders at 15 µM [%] | other results
49 | CCOC(=O)C1=CCN(S(=O)(=O)c2ccc(Br)cc2)C1c1ccccc1 (stereo not shown) [FS104] |  |  | Rescue at 10 uM (%): 60%; Rescue at 15 uM (%): 50%; Rescue at 20 uM (%): 60%
50 | CCOC(=O)C1=CCN(S(=O)(=O)c2ccccc2[N+](=O)[O-])C1c1ccc(C)cc1 (stereo not shown) [FS075] |  |  | Rescue at 10 uM (%): 0%
51 | CCOC(=O)C1=CCN(S(=O)(=O)c2ccccc2Cl)C1c1ccc(C)cc1 (stereo not shown) [FS044] | 0 |  | 
52 | CCOC(=O)C1=CCN(S(=O)(=O)c2cccc(F)c2)C1c1ccc(F)cc1 (stereo not shown) [FS135] |  | 50 | 
53 | CCOC(=O)C1=CCN(S(=O)(=O)c2ccc(Cl)cc2)C1c1ccc(C)cc1 (stereo not shown) [FS086] |  |  | Rescue at 10 uM (%): 11%
54 | CCOC(=O)C1=CCN(S(=O)(=O)c2ccccc2C)C1c1cccc(Cl)c1 (stereo not shown) [FS020] | 0 |  | 
55 | CCOC(=O)C1=CCN(S(=O)(=O)c2ccc(Cl)cc2)C1c1cccc(F)c1 (stereo not shown) [FS090] | 40 |  | 
56 | CCOC(=O)C1=CCN(S(=O)(=O)c2ccc(Br)cc2)C1c1ccc(F)cc1 (stereo not shown) [FS101] | 20 |  | 
57 | CCOC(=O)C1=CCN(S(=O)(=O)c2cccc(F)c2)C1c1ccc(Cl)cc1 (stereo not shown) [FS133] |  | 78 | 
58 | CCOC(=O)C1=CCN(S(=O)(=O)c2ccc(C)cc2)C1c1cccs1 (stereo not shown) [FS147] |  | 60 | 
59 | CCOC(=O)C1=CCN(S(=O)(=O)c2ccccc2Br)C1c1ccc(C)cc1 (stereo not shown) [FS048] | 0 |  | 
60 | CCOC(=O)C1=CCN(S(=O)(=O)c2ccc(Cl)cc2)C1c1ccc(Cl)c(Cl)c1 (stereo not shown) [FS087] | 22 | 0 | responders at 20 µM: 0%
61 | CCOC(=O)C1=CCN(S(=O)(=O)c2ccc(C)cc2)C1c1ccc(Br)cc1 (stereo not shown) [FS066] |  |  | Rescue at 10 uM (%): 11%
62 | CCOC(=O)C1=CCN(S(=O)(=O)c2ccccc2Cl)C1c1cccc(F)c1 (stereo not shown) [FS027] | 0 |  | 
63 | CCOC(=O)C1=CCN(S(=O)(=O)c2ccc(F)cc2)C1c1cccc(Br)c1 (stereo not shown) [FS115] |  | 30 | 
64 | CCOC(=O)C1=CCN(S(=O)(=O)c2cccc(Cl)c2)C1c1ccc(Cl)c(Cl)c1 (stereo not shown) [FS118] |  | 10 | 
65 | CCOC(=O)C1=CCN(S(=O)(=O)c2ccc(F)cc2)C1c1cccc(Cl)c1 (stereo not shown) [FS114] |  | 22 | 
66 | CCOC(=O)C1=CCN(S(=O)(=O)c2ccc(F)cc2)C1c1ccc(Br)cc1 (stereo not shown) [FS124] |  | 90 | 
67 | CCOC(=O)C1=CCN(S(=O)(=O)c2ccccc2Br)C1c1cccc(F)c1 (stereo not shown) [FS032] | 0 |  | 
68 | CCOC(=O)C1=CCN(S(=O)(=O)c2ccccc2Cl)C1c1ccc(Br)cc1 (stereo not shown) [FS042] | 0 |  | 
69 | CCOC(=O)C1=CCN(S(=O)(=O)c2ccccc2Cl)C1c1cccc(Cl)c1 (stereo not shown) [FS024] | 0 |  | 
70 | CCOC(=O)C1=CCN(S(=O)(=O)c2ccc(C)cc2)C1c1ccc(Cl)c(Cl)c1 (stereo not shown) [FS065] | 11 |  | 
71 | CCOC(=O)C1=CCN(S(=O)(=O)c2ccccc2)C1c1ccccc1 (stereo not shown) [FS148] |  | 56 | 
